“Also recorded” adds a separate entry of the source.
How the values were obtained:
Format in all cases: in vivo, mouse
C57Bl/6J mice [1] = test: Fasting and random-fed blood glucose; details: for fasting blood glucose / random-fed blood glucose: HFD+NA versus HFD, 8 weeks on diets
Procedure: (§1) Insulin Tolerance Test (ITT) and Glucose Tolerance Test (GTT) and analysis of blood glucose and plasma insulin. ITT and GTT were performed as described in Lansey et al., 2012. Briefly, for ITT, random-fed mice were given an intraperitoneal injection (IP) of insulin (0.75 U/kg in 0.9% NaCl). Blood glucose levels were determined by a glucometer (Contour Next EZ Blood Glucose Monitoring System, Bayer, Leverkusen, Germany) at the indicated time points after injection. For GTT, mice were fasted for 16 hours prior to testing. D-Glucose, prepared the day before, was administered via an IP injection (1 g/kg), and blood glucose levels were determined by a glucometer at the indicated time points after injection. Plasma insulin levels were determined using a STELLUX® brand Chemi Rodent Insulin ELISA kit (Cat. No. 80-INSMR-CHO1; APLCO, Salem, N.H., United States of America) or an Ultrasensitive Rat/Mouse Insulin ELISA kit, Low Range Assay (Cat. No. 90060; Crystal Chem, Downers Grove, Ill., United States of America). The luminescence assay was conducted using a VICTOR2 Plate Reader (Perkin Elmer, Waltham, Mass., United States of America).

C57Bl/6J mice [2] = test: Insulin Tolerance Test (ITT)
Procedure: as §1

C57Bl/6J mice [3] = test: Body weight over 12 weeks on the diets
Procedure: (§2) Animals. Animal experiments were approved by the Animal Care and Use Committee of the University of Virginia (Charlottesville, Va., United States of America). C57Bl/6J mice were obtained from Jackson Laboratories (Bar Harbor, Me., United States of America). Mice were group housed in standard cages with up to five mice per cage with a 12 hour dark/light cycle. All mice were weighed once per week. Weekly food consumption was measured, with the amount consumed per cage averaged amongst the mice in the cage. Body composition was determined by use of an ECHOMRI™-100H Body Composition Analyzer (EchoMRI LLC, Houston, Tex., United States of America).
(§3) Diets. Diets were obtained from Research Diets (New Brunswick, N.J., United States of America). The low fat chow was D12450Ji (10 kcal % fat) and the high fat chow was D12492 (60 kcal % fat). These two chows were reformulated by replacing a portion of dietary fat with an ethyl ester of nervonic acid from Nu-Chek Prep (Elysian, Minn., United States of America) to produce isocaloric diets with nervonic acid at 6 g per kg of diet (0.6%). For the three most prevalent fatty acids in these diets: C16 comprised 14.4%, 11.7%, 18.5%, and 18.1%; C18:1 comprised 27.4%, 22.8%, 32%, and 31.4%; and C18:2 comprised 39.6%, 36.2%, 26.9%, and 26.5% of the fatty acid composition of the Cnt, Cnt+NA, HFD, and HFD+NA diets, respectively. Mice were started on diets at ˜8 weeks of age and given ad libitum access.

C57Bl/6J mice [4] = test: Plasma C24:1-ceramides after 72 hours on the diets; details: control and HFDs; 72 hours on diets
Description: as §3
Sphingolipid and acylcarnitine measurements by liquid chromatography-mass spectrometry. Sphingolipids were analyzed as described previously (Wijesinghe et al., 2010) for FIG. 1B or with modifications described herein. Liver samples from rats fed a low or high fat diet were obtained from Scot Kimball's laboratory at the Pennsylvania State University (Hershey, Pa.). Mouse liver samples were analyzed with modifications as described previously (Pearson et al., 2020). […]

C57Bl/6J mice [5] = test: Observation of overt toxicities in animals fed a NA-enriched diet
C57Bl/6J mice [6] = test: Liver ceramide and lipid composition by LC-MS/MS in mice on control or high fat diets with or without nervonic acid
Procedure: as §2, §3
Sphingolipid and acylcarnitine measurements by liquid chromatography-mass spectrometry. Sphingolipids were analyzed as described previously (Wijesinghe et al., 2010) for FIG. 1B or with modifications described herein. Liver samples from rats fed a low or high fat diet were obtained from Scot Kimball's laboratory at the Pennsylvania State University (Hershey, Pa.). Mouse liver samples were analyzed with modifications as described previously (Pearson et al., 2020). For FIGS. 1A and 5D, liver homogenates were subjected to lipid extraction and subjected to liquid chromatography-electrospray ionization mass spectrometry was performed on an I-class Acquity with a 2.1 mm×10 cm C18 CSH […] particle size column coupled to an in-line TQ-S mass spectrometer from Waters Corporation (Milford, Mass., United States of America).

C57Bl/6J mice [7] = test: Body composition (EchoMRI)
Procedure: as §2, §3

C57Bl/6J mice [8] = test: Glucose Tolerance Test (GTT); details: HFD+NA versus HFD, 10 weeks on diets
Procedure: as §1

C57Bl/6J mice [9] = test: Liver acylcarnitine levels by LC-MS/MS
Procedure: Acylcarnitines were quantified as their butyl esters as described in Giesbertz et al., 2015. Briefly, liver tissue was extracted in ice-cold methanol spiked with stable-isotopically labeled internal standards (Cambridge Isotope Laboratories, Tewksbury, Mass., United States of America). Insoluble material was pelleted and the supernatant subsequently dried down under vacuum. Samples were solubilized in n-butanol containing 5% acetyl chloride and incubated for 60° C. for 20 minutes, Samples were subsequently dried down again and resuspended in 50:50 water:methanol for LC-ESI-MS/MS analysis. LC-MS/MS analysis was performed on a I-class Acquity with a 2.1 mm×10 cm C18 CSH […] particle size column coupled to an in-line TQ-S mass spectrometer using multiple reaction monitoring. Calibration curves were generated from standard mixtures of acylcarnitines from Cambridge Isotope Laboratories.

[10] = NA enrichment in both the control diet and the HFD

Q: (Z)-tetracos-15-enoic acid [NA] was tested. Which fasting blood glucose (C57Bl/6J mice [1]) did it give?
A: significant reductions

Q: What about the random-fed blood glucose (C57Bl/6J mice [1]) of the same substance?
A: significant reductions

Q: What about the fasting blood glucose (C57Bl/6J mice [1]; listed as nervonic acid) of the same substance?
A: significant reduction

Q: What about the random-fed blood glucose (C57Bl/6J mice [1]; listed as nervonic acid) of the same substance?
A: significant reduction

Q: And the blood glucose levels (C57Bl/6J mice [1]; HFD+NA versus control diet, random fed or fasted)?
A: not significantly different

Q: And the blood glucose levels (C57Bl/6J mice [1]; control with NA diet versus control)?
A: No significant differences

Q: What about the “response of blood glucose to insulin injection” value (“response of blood glucose” below) (C57Bl/6J mice [2]; HFD+NA, 11 weeks on diets) of the same substance?
A: responded similarly to mice on control diets

Q: What about the “response of blood glucose” value (C57Bl/6J mice [2]; HFD+NA, 11 weeks on diets, listed as nervonic acid) of the same substance?
A: responded similarly to mice on the control diet

Q: What about the “response of blood glucose” value (C57Bl/6J mice [2]; control diet containing NA) of the same substance?
A: responded similar to mice on the control diet alone

Q: What about the “response of blood glucose” value (C57Bl/6J mice [2]; control diet containing NA, listed as nervonic acid) of the same substance?
A: responded similar to the control diet

Q: What about the body weight gain (C57Bl/6J mice [3]; HFD+NA versus HFD, 12 weeks) of the same substance?
A: significantly less body weight gain

Q: And the body weights (C57Bl/6J mice [3]; HFD+NA versus control diet, 12 weeks)?
A: not significantly different

Q: And the “body weight gains over time” value (C57Bl/6J mice [3]; NA-enriched control diet versus control diet)?
A: significantly less body weight gains over time

Q: What about the “plasma C24:1-ceramides” value (C57Bl/6J mice [4]) of the same substance?
A: significant increases

Q: What about the “overt toxicities (ruffled fur, anorexia, cachexia, skin tenting, skin ulcerations, diarrhea, death)” value (C57Bl/6J mice [5]) of the same substance?
A: No overt toxicities

Q: What about the “hepatic C20 and C22-ceramides” value (C57Bl/6J mice [6]; HFD-fed mice, NA-supplemented diet) of the same substance?
A: back to control levels

Q: What about the “C24:1-lysophosphatidylcholine in liver” value (C57Bl/6J mice [6]; NA-enriched control and HFDs) of the same substance?
A: elevated

Q: What about the “diacylglyceride C16:0/C24:1 in liver” value (C57Bl/6J mice [6]; NA-enriched control and HFDs) of the same substance?
A: elevated

Q: What about the “diacylglyceride C18:0/C24:1 in liver” value (C57Bl/6J mice [6]; NA-enriched control and HFDs) of the same substance?
A: elevated

Q: And the “diacylglyceride C18:1/C24:1 in liver” value (C57Bl/6J mice [6]; NA-enriched control and HFDs)?
A: elevated

Q: What about the “diacylglyceride C18:2/C24:1 in liver” value (C57Bl/6J mice [6]; NA-enriched control and HFDs) of the same substance?
A: elevated

Q: What about the “total amounts of ceramides in liver” value (C57Bl/6J mice [6]; between diet groups with and without NA) of the same substance?
A: consistent between diet groups

Q: What about the “C24:1-hexosylceramide in liver” value (C57Bl/6J mice [6]; both diets, NA 0.6%) of the same substance?
A: increasing

Q: And the “C24:1-sphingomyelin in liver” value (C57Bl/6J mice [6]; both diets, NA 0.6%)?
A: increasing

Q: And the “other ceramides C20-C26 in liver” value (C57Bl/6J mice [6]; normal and HFD fed groups, NA 0.6% by diet weight)?
A: concomitant decreases

Q: What about the “C24:1-ceramides in liver” value (C57Bl/6J mice [6]; normal and HFD fed groups, ethyl ester of NA 0.6% by diet weight) of the same substance?
A: increases

Q: What about the “average body fat content” value (C57Bl/6J mice [7]; HFD+NA fed animals at the time of sacrifice (HFD: 16.44 g/mouse)) of the same substance?
A: 9.48 g/mouse

Q: What about the fat mass (C57Bl/6J mice [7]; HFD+NA versus HFD) of the same substance?
A: reduction in fat mass

Q: And the lean mass (C57Bl/6J mice [7]; HFD+NA versus HFD)?
A: slightly, but significantly, reduced

Q: What about the lean mass (C57Bl/6J mice [7]; HFD+NA versus control or control+NA groups) of the same substance?
A: not significantly different

Q: And the water mass (C57Bl/6J mice [7]; all experimental groups)?
A: similar

Q: And the lean mass (C57Bl/6J mice [7]; control+NA versus control)?
A: not significantly different

Q: What about the “glucose tolerance (glucose load, area under the curve)” value (C57Bl/6J mice [8]) of the same substance?
A: significantly improved glucose tolerance

Q: And the “glucose tolerance (glucose load, area under the curve)” value (C57Bl/6J mice [8]; listed as nervonic acid)?
A: reduction in the glucose load

Q: And the “dicarboxyl-acylcarnitines C5 (C5-DC) and C6 (C6-DC) levels in liver” value (C57Bl/6J mice [9]; HFD enriched with NA)?
A: teductions

Q: What about the “long-chain acylcarnitines in liver” value (C57Bl/6J mice [9]; HFD+NA versus HFD) of the same substance?
A: significant decreases; also recorded: largely restored to control levels

Q: And the “hydroxyl-fatty acylcarnitines in liver” value (C57Bl/6J mice [9]; NA enrichment in both diets, C4-OH, C6-OH, C10-OH, C8-OH)?
A: increased

Q: What about the “acetyl-carnitine (C2) in liver” value (C57Bl/6J mice [9]; [10]) of the same substance?
A: increased

Q: And the “free carnitine (C0) in liver” value (C57Bl/6J mice [9]; [10])?
A: increased
